The source made the active and inactive calls. No cut-off for these calls is given here.
Assays:
SH-SY5Y [1] = assay: Reduction of paraquat-induced cell death in SH-SY5Y cells assessed as subG1 DNA content relative to control; format: functional, cell-based; conditions: Homo sapiens
SH-SY5Y [2] = assay: Increase in cell viability of SH-SY5Y cells in serum starved conditions at 10 ug/mL after 48 hrs by MTT assay relative to control; format: functional, Homo sapiens
SH-SY5Y [3] = assay: Effect on 2 mM paraquat-induced intracellular calcium level in SH-SY5Y cells after 8 hrs relative to control; format: functional, Homo sapiens
SH-SY5Y [4] = assay: Effect on sodium nitroprusside-induced intracellular calcium level in SH-SY5Y cells after 8 hrs relative to control; format: functional, Homo sapiens
Caspase-3 (Homo sapiens) [5] = target: T1, Caspase-3 (Homo sapiens) (UniProt P42574); assay: Decrease in paraquat-induced caspase-3 activity in SH-SY5Y cells; format: cell-based
T1 sequence (whole entry): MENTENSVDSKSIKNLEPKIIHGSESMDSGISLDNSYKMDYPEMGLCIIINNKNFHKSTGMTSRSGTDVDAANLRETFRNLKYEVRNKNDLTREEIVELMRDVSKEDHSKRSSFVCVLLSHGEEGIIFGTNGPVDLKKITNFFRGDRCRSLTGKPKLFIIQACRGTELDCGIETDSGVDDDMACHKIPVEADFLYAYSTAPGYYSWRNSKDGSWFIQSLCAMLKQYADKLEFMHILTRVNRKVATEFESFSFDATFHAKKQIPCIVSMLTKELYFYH

SH-SY5Y [6] = assay: Inhibition of 5 mM sodium nitroprusside-induced cell death in SH-SY5Y cells assessed as increase in cell viability at 30 ug/mL after 24 hrs by MTT assay relative to control; format: functional, Homo sapiens
SH-SY5Y [7] = assay: Effect on 3 mM sodium nitroprusside-induced mitochondrial transmembrane potential level in SH-SY5Y cells after 8 hrs; format: functional, Homo sapiens
SH-SY5Y [8] = assay: Reduction of sodium nitroprusside-induced nitric oxide production in SH-SY5Y cells; format: functional, cell-based; conditions: Homo sapiens
SH-SY5Y [9] = assay: Reduction on sodium nitroprusside-induced ROS production in SH-SY5Y cells; format: functional, Homo sapiens; set-up: scale not given: the % may be the effect or the level left
SH-SY5Y [10] = assay: Inhibition of 2 mM paraquat-induced cell death in SH-SY5Y cells assessed as increase in cell viability at 10 ug/mL after 24 hrs by MTT assay relative to control; format: functional, Homo sapiens
SH-SY5Y [11] = assay: Inhibition of 2 mM paraquat-induced cell death in SH-SY5Y cells assessed as increase in cell viability at 30 ug/mL after 24 hrs by MTT assay relative to control; format: functional, Homo sapiens
SH-SY5Y [12] = assay: Effect on sodium nitroprusside-induced intracellular calcium level in SH-SY5Y cells after 25 hrs relative to control; format: functional, Homo sapiens
Caspase-9 (Homo sapiens) [13] = target: T2, Caspase-9 (Homo sapiens) (UniProt P55211); assay: Decrease in paraquat-induced caspase 9 activity in SH-SY5Y cells; format: cell-based
T2 sequence (whole entry): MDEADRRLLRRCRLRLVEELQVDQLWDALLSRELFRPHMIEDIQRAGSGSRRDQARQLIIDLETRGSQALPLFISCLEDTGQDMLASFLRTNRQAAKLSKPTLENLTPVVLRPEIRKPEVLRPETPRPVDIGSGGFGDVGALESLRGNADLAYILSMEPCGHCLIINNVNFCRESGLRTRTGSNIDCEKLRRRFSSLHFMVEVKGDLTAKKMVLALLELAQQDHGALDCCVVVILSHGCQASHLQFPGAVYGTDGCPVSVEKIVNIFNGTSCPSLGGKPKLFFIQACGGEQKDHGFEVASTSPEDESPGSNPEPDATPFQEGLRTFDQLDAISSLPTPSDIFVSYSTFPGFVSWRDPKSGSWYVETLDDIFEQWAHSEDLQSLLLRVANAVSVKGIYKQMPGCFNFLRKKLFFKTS

SH-SY5Y [14] = assay: Reduction on paraquat-induced ROS production in SH-SY5Y cells; format: functional, Homo sapiens; set-up: scale not given: the % may be the effect or the level left
SH-SY5Y [15] = assay: Effect on 3 mM sodium nitroprusside-induced mitochondrial transmembrane potential level in SH-SY5Y cells after 24 hrs; format: functional, Homo sapiens
Caspase-9 (Homo sapiens) [16] = target: T2, Caspase-9 (Homo sapiens); assay: Decrease in sodium nitroprusside-induced caspase 9 activity in SH-SY5Y cells; format: cell-based
SH-SY5Y [17] = assay: Inhibition of 2 mM paraquat-induced cell death in SH-SY5Y cells assessed as increase in cell viability at 20 ug/mL after 24 hrs by MTT assay relative to control; format: functional, Homo sapiens
SH-SY5Y [18] = assay: Inhibition of 1 mM sodium nitroprusside-induced cell death in SH-SY5Y cells assessed as increase in cell viability at 30 ug/mL after 24 hrs by MTT assay relative to control; format: functional, Homo sapiens
SH-SY5Y [19] = assay: Inhibition of 3 mM sodium nitroprusside-induced cell death in SH-SY5Y cells assessed as increase in cell viability at 30 ug/mL after 24 hrs by MTT assay relative to control; format: functional, Homo sapiens
SH-SY5Y [20] = assay: Reduction of nitric oxide-induced intracellular calcium level in SH-SY5Y cells; format: functional, cell-based; conditions: Homo sapiens
SH-SY5Y [21] = assay: Reduction of sodium nitroprusside-induced cell death in SH-SY5Y cells assessed as subG1 DNA content relative to control; format: functional, cell-based; conditions: Homo sapiens
SH-SY5Y [22] = assay: Increase in cell viability of SH-SY5Y cells in serum starved conditions at 20 ug/mL after 48 hrs by MTT assay relative to control; format: functional, Homo sapiens
SH-SY5Y [23] = assay: Effect on 2 mM paraquat-induced intracellular calcium level in SH-SY5Y cells after 24 hrs relative to contro; format: functional, Homo sapiens
Caspase-3 (Homo sapiens) [24] = target: T1, Caspase-3 (Homo sapiens); assay: Decrease in sodium nitroprusside-induced caspase-3 activity in SH-SY5Y cells; format: cell-based
SH-SY5Y [25] = assay: Increase in cell viability of SH-SY5Y cells in serum starved conditions at 30 ug/mL after 48 hrs by MTT assay relative to control; format: functional, Homo sapiens

Oc1ccc([C@H]2Oc3cc(O)cc([C@@H]4[C@H](c5cc(O)cc(O)c5)[C@@H](c5ccc(O)cc5)O[C@H]4c4ccc(O)cc4)c3[C@@H]2c2cc(O)c3c(c2)[C@@H](c2cc(O)cc(O)c2)[C@H](c2ccc(O)cc2)O3)cc1 [KOBOPHENOL A]
Activity (SH-SY5Y [1]): Active | Activity (SH-SY5Y [2]): 105.7% | Activity (SH-SY5Y [3]): 99.1% | Activity (SH-SY5Y [4]): 96.1% | Activity (Caspase-3 (Homo sapiens) [5]): Active | Activity (SH-SY5Y [6]): 88.1% | Activity (SH-SY5Y [7]): 128.3% | Activity (SH-SY5Y [8]): inactive | Activity (SH-SY5Y [9]): 103.4% | Activity (SH-SY5Y [10]): 66.3% | Activity (SH-SY5Y [11]): 102.5% | Activity (SH-SY5Y [12]): 96.1% | Activity (Caspase-9 (Homo sapiens) [13]): Dose-dependent effect | Activity (SH-SY5Y [14]): 103.6% | Activity (SH-SY5Y [15]): 119.3% | Activity (Caspase-9 (Homo sapiens) [16]): Dose-dependent effect | Activity (SH-SY5Y [17]): 85.6% | Activity (SH-SY5Y [18]): 108.6% | Activity (SH-SY5Y [19]): 109.8% | Activity (SH-SY5Y [20]): Active | Activity (SH-SY5Y [21]): Active | Activity (SH-SY5Y [22]): 91.4% | Activity (SH-SY5Y [23]): 98.3% | Activity (Caspase-3 (Homo sapiens) [24]): Dose-dependent effect | Activity (SH-SY5Y [25]): 78.7%
